Measured values from patent US20100168228A1, “NOVEL CHEMOTHERAPEUTIC AGENTS AGAINST INFLAMMATION AND CANCER” (RELIANCE LIFE SCIENCES PVT. LTD., priority 2006, published 2010).

Columns and labels:
Assay type in all cases: cell-based, human
Jurkat cells [1] = assay: DNA fragmentation assay, Jurkat; conditions: 24 h
Procedure: DNA fragmentation Assay: After treatment with the compounds for 24 h, cells were harvested and washed in PBS. The cell pellet was incubated with lysis buffer (10 mM Tris-HCl pH 7.5, 1 mM EDTA, 1% SDS and 80 ug/ml proteinase K) at 37° C. overnight. After extraction with phenol/chloroform, the DNA was precipitated with 100% ethanol and then dissolved in Tris-EDTA buffer (pH 8.0) with RNase A at 37° C. The DNA estimation was performed by taking absorbance at 260/280 nm, and DNA was resolved in a 1.8% agarose gel, stained with ethidium bromide and visualized under a UV transilluminator.

Jurkat cells [2] = assay: Cell cycle analysis (PI, flow cytometry), Jurkat; conditions: for cell cycle distribution with time: 100 nM and 500 nM
Procedure: (§1) Cells (log phase culture) were treated with vehicles alone (similar volumes of DMSO) or with the compound (various concentrations) to be tested for 24 h. Untreated cells were also included in this experiment for comparison. After treatments, the cells were harvested and washed with cold EDTA/PBS (5 mmol/L). Cells were then resuspended in cold EDTA/PBS (300 μl) and 100% chilled ethanol (700 μl), vortexed, and incubated at room temperature for 1 h. Samples were centrifuged at 200×g for 5 minutes and the supernatant was removed. A solution containing propidium iodide (100 μg/ml) and RNase A (1 mg/ml) was added to the samples and incubated for 1 h at room temperature. Samples were then transferred to 12×75 mm polystyrene tubes and analyzed on flow cytometer. Flow cytometry analyses were done on FACSCalibur (Becton Dickinson, San Jose, Calif.) and data were analyzed using CellQuest analysis software.
as §1, with “Cells (log phase culture) were treated with vehicles alone (similar volumes of DMSO) or with the compound (various concentrations) to be tested for 24 h.” left out, “PBS.” for “EDTA/PBS (5 mmol/L).”, “PBS” for “EDTA/PBS”

U937 cells = assay: Cell cycle analysis, U937; conditions: 24 h
Procedure: FIG. 17: Differential effect of compound 27 on the cell cycle distribution in U937 cell line. Cells were treated with different concentration of the compound for 24 h and after staining with PI, cell cycle distribution was analyzed using Flow Cytometer. The data indicates the percentage of cells in each phase of the cell cycle.
as §1, with “Cell Cycle Analysis: Cells (log” for “Cells (log”, “with cold PBS. Cells were” for “with cold EDTA/PBS (5 mmol/L). Cells were”, “in cold PBS (300 μl)” for “in cold EDTA/PBS (300 μl)”

Cyclin D1 = Cyclin D1 mRNA, semi-quantitative RT-PCR; conditions: various concentrations
Procedure: FIG. 10: Effect of CAMVE on Cell Cycle distribution. A. 5×10^5 cells were treated with indicated concentrations of CAMVE as indicated and cell cycle analyses were performed using Flow Cytometry as described in the “Materials and Methods”. The percentage of cells in G1, S, and G2-M phase were calculated using Cell Quest analysis software and are represented within the histograms. The data shown here are from a representative experiment repeated three times with similar results. B. Expression of human Cyclin D1, was assayed by semi quantitative RT-PCR analysis with GAPDH as internal control. […]
Total RNA was isolated using the standard TRIzol method (Gibco BRL). Briefly, 3×10^6 cells were treated with different concentrations of the compounds as indicated in the legends to Figures and after harvesting the cell pellet was resuspended in 1 ml of TRIzol with repeated pipetting. The homogenized sample was incubated at RT for 5 min to permit complete dissociation of the nucleoprotein complexes. 200 μl of chloroform was added and the tubes were shaken vigorously for 15 sec by hand and then incubated at RT for 3 mins. The samples were then centrifuged at 10,000 RPM for 15 mins at 4° C. […]
Changes in gene expression were verified by semi-quantitative RT-PCR using GAPDH as an internal normalization standard. 1 μg of total RNA (quantified by spectrophotometer) was used to reverse transcribe into cDNA. […]

Row | SMILES | DNA fragmentation (agarose gel) (Jurkat cells [1]) | G2/M population (Jurkat cells [2]; 50 nM (data not shown)) | cell cycle distribution with time (Jurkat cells [2]; 48 and 72 h) | cell cycle distribution with time (Jurkat cells [2]; 24 h) | increase of cells in the G2/M phase (Jurkat cells [2]; 100 nM, 24 h) | G2/M and sub G1 population (Jurkat cells [2]; concentration higher than 100 nM) | sub G1 population (U937 cells; U937, 10 μM) | proportion of cells in the S phase (U937 cells; U937, 5 and 10 μM, increase from-to) | proportion of cells in the G2/M phase (U937 cells; U937, 100, 500, 5000, 10000 nM) | sub G1 population (U937 cells; U937, 100 and 500 nM) | cell cycle distribution (Jurkat cells [2]; 5 μM, 24 h) | expression of cyclin D1 m-RNA (Cyclin D1)
1 | COc1cc([C@@H]2Oc3c(OC)cc(/C=C/C(=O)O)cc3[C@H]2C(=O)O)ccc1O [compound 27, 5-[(E)-2-carboxyvinyl]-2β-(4-hydroxy-3-methoxyphenyl)-7-methoxy-2,3-dihydro-1-benzofuran-3α-carboxylic acid] | typical ladder pattern of internucleosomal fragmentation | no significant increase in G2/M population | significant decrease in the G2/M population | accumulated in G2/M after 24 h with a significant decrease in the G1 and S phase populations | ~50% | further increase in both G2/M and sub G1 population | ~30% | 26%-35% | no significant increase in the proportion of cells in the G2/M phase | no increase | – | –
2 | COC(=O)c1ccc(OC(=O)/C=C/c2ccc(O)c(O)c2)c(OC)c1 [compound 1, Methyl 4-{[(2E)-3-(3,4-dihydroxyphenyl)prop-2-enoyl]oxy}-3-methoxybenzoate] | – | – | – | – | – | – | – | – | – | – | significant increase of cells in the G1 and compensatory decrease in the S phase | notably decreased
